{"source": "patent US6297354A", "about": "“Pentapeptide LHRH antagonists” (Abbott Laboratories, priority 1999, dated 2001)", "note": "Where a SMILES comes first, the peptide text is derived from it. [ ]: non-standard residue; d: D form. The star is where a group is joined. Propanoyl(3-(4-F-phenyl)) = O=C(CCc1ccc(F)cc1)*; NH(2-pyrrolidin-1-ylethyl) = C1CCN(CCN*)C1; dBip = N[C@H](Cc1ccc(-c2ccccc2)cc1)C(=O)O; 1Nal = N[C@@H](Cc1cccc2ccccc12)C(=O)O; d1Nal = N[C@H](Cc1cccc2ccccc12)C(=O)O; NMeY = CN[C@@H](Cc1ccc(O)cc1)C(=O)O; Tic = O=C(O)[C@@H]1Cc2ccccc2CN1; NMeL = CN[C@@H](CC(C)C)C(=O)O; Nicotinoyl = O=C(c1cccnc1)*; Sar = CNCC(=O)O"}
{"biological_target": "T1, LH release from rat pituitary cells (Rattus norvegicus, UniProt P30969)", "T1 sequence (P30969 1-327)": "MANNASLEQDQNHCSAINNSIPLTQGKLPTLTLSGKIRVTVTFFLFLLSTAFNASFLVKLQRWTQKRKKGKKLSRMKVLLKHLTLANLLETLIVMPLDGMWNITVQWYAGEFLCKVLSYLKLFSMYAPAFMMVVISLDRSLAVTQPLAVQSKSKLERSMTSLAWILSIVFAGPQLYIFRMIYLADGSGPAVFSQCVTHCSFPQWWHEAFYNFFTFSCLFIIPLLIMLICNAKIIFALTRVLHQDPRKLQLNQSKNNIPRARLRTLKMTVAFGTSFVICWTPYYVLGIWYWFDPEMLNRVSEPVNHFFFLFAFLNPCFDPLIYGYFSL", "assay": "in vitro inhibition of LH release from rat pituitary cells (pA2, vs agonist leuprolide)", "type": "cell-based", "conditions": "negative logarithm of antagonist concentration required to shift the response curve produced by agonist leuprolide to two-fold higher concentration", "procedure": "Representative compounds of the present invention were evaluated in vitro for inhibition of LH release from rat pituitary cells (pA2). Methods for the assay procedures are described by F. Haviv, et al. J. Med. Chem., 32:2340-2344 (1989). Values of pA2 are the negative logarithms of the concentration of the particular antagonist test compound required to shift the response curve produced by the agonist leuprolide to two-fold higher concentration. Typically values of 6.0 or greater are indicative of good LHRH antagonist potency, with values of 7.0 or greater being preferred. Leuprolide LHRH agonist, disclosed and claimed in U.S. Pat. No. 4,005,063, has the structure 5-oxo-Pro1^1 -His^2 […] -Ser^4 -Tyr^5 -D-Leu^6 -Leu^7 -Arg^8 -Pro^9 -NHEt."}
{"smiles": "CC(C)C[C@H](NC(=O)[C@@H](CCCCNC(=O)c1cccnc1)NC(=O)[C@H](Cc1ccc(O)cc1)N(C)C(=O)[C@@H]1CCCN1C(=O)[C@@H](Cc1cccc2ccccc12)NC(=O)CCc1ccc(F)cc1)C(=O)NCCN1CCCC1", "note": "[Example 16, 4-F-Phenylpropionyl-D1Nal-Pro-NMeTyr-DLys(Nic)-Leu-NH--(CH2)2 -(1-Pyrrolidine)] ({Propanoyl(3-(4-F-phenyl))}-[d1Nal]P[NMeY][dK](Nicotinoyl)L-{NH(2-pyrrolidin-1-ylethyl)})", "LHRH Antagonist Activity (pA2)": 8.71}
{"smiles": "CC(C)C[C@H](NC(=O)[C@@H](CCCCNC(=O)c1cccnc1)NC(=O)CN(C)C(=O)[C@H](CO)NC(=O)[C@@H](Cc1cccc2ccccc12)NC(=O)CCc1ccc(F)cc1)C(=O)NCCN1CCCC1", "note": "[Example 3, 4-F-Phenylpropionyl-D1Nal-Ser-Sar-DLys(Nic)-Leu-NH--(CH2)2 (1-pyrrolidine)] ({Propanoyl(3-(4-F-phenyl))}-[d1Nal]S[Sar][dK](Nicotinoyl)L-{NH(2-pyrrolidin-1-ylethyl)})", "LHRH Antagonist Activity (pA2)": 7.66}
{"smiles": "CC(C)C[C@H](NC(=O)CNC(=O)[C@H](Cc1ccc(O)cc1)N(C)C(=O)[C@H](CO)NC(=O)[C@@H](Cc1cccc2ccccc12)NC(=O)CCc1ccc(F)cc1)C(=O)NCCN1CCCC1", "note": "[Example 2, 4-F-Phenylpropionyl-D1Nal-Ser-NMeTyr-Gly-Leu-NH--(CH2)2 -(1pyrrolidine)] ({Propanoyl(3-(4-F-phenyl))}-[d1Nal]S[NMeY]GL-{NH(2-pyrrolidin-1-ylethyl)})", "LHRH Antagonist Activity (pA2)": 9.14}
{"smiles": "CC(C)C[C@@H](C(=O)NCCN1CCCC1)N(C)C(=O)CNC(=O)[C@H](Cc1ccc(O)cc1)N(C)C(=O)CNC(=O)[C@@H](Cc1cccc2ccccc12)NC(=O)CCc1ccc(F)cc1", "note": "[Example 9, 4-F-Phenylpropionyl-D1Nal-Gly-NMeTyr-Gly-NMeLeu-NH--(CH2)2 -(1-pyrrolidine)] ({Propanoyl(3-(4-F-phenyl))}-[d1Nal]G[NMeY]G[NMeL]-{NH(2-pyrrolidin-1-ylethyl)})", "LHRH Antagonist Activity (pA2)": 7.72}
{"smiles": "CC(C)C[C@@H](C(=O)NCCN1CCCC1)N(C)C(=O)CNC(=O)[C@H](Cc1ccc(O)cc1)N(C)C(=O)[C@H](CO)NC(=O)[C@@H](Cc1cccc2ccccc12)NC(=O)CCc1ccc(F)cc1", "note": "[Example 8, 4-F-Phenylpropionyl-D1Nal-Ser-NMeTyr-Gly-NMeLeu-NH--(CH2)2 -(1Pyrrolidine)] ({Propanoyl(3-(4-F-phenyl))}-[d1Nal]S[NMeY]G[NMeL]-{NH(2-pyrrolidin-1-ylethyl)})", "LHRH Antagonist Activity (pA2)": 9.00}
{"smiles": "CC(C)C[C@H](NC(=O)[C@@H](CCCCNC(=O)c1cccnc1)NC(=O)[C@H](Cc1ccc(O)cc1)N(C)C(=O)[C@H](CO)NC(=O)[C@@H](Cc1ccc(-c2ccccc2)cc1)NC(=O)CCc1ccc(F)cc1)C(=O)NCCN1CCCC1", "note": "[Example 11, 4-F-Phenylpropionyl-DBiphe-Ser-NMeTyr-DLys(Nic)-Leu-NH--(CH2)2-(1-pyrrolidine)] ({Propanoyl(3-(4-F-phenyl))}-[dBip]S[NMeY][dK](Nicotinoyl)L-{NH(2-pyrrolidin-1-ylethyl)})", "LHRH Antagonist Activity (pA2)": 7.62}
{"smiles": "CC(C)C[C@H](NC(=O)[C@@H](CCCCNC(=O)c1cccnc1)NC(=O)[C@H](Cc1ccc(O)cc1)NC(=O)[C@H](CO)NC(=O)[C@@H](Cc1cccc2ccccc12)NC(=O)CCc1ccc(F)cc1)C(=O)NCCN1CCCC1", "note": "[Example 7, 4-F-Phenylpropiopyl-D1Nal-Ser-Tyr-DLys(Nic)-Leu-NH--(CH2)2 -(1-pyrrolidine)] ({Propanoyl(3-(4-F-phenyl))}-[d1Nal]SY[dK](Nicotinoyl)L-{NH(2-pyrrolidin-1-ylethyl)})", "LHRH Antagonist Activity (pA2)": 9.73}
{"smiles": "CC(C)C[C@H](NC(=O)[C@@H](Cc1ccccc1)NC(=O)[C@H](Cc1ccc(O)cc1)N(C)C(=O)[C@H](CO)NC(=O)[C@@H](Cc1c[nH]c2ccccc12)NC(=O)CCc1ccc(F)cc1)C(=O)NCCN1CCCC1", "note": "[Example 15, 4-F-Phenylpropionyl-DTrp-Ser-NMeTyr-DPhe-Leu-NH--(CH2)2 -(1-pyrrolidine)] ({Propanoyl(3-(4-F-phenyl))}-[dW]S[NMeY][dF]L-{NH(2-pyrrolidin-1-ylethyl)})", "LHRH Antagonist Activity (pA2)": 8.59}
{"smiles": "CC(C)C[C@H](NC(=O)[C@@H](CCCCNC(=O)c1cccnc1)NC(=O)[C@H](Cc1ccc(O)cc1)N(C)C(=O)[C@H](CO)NC(=O)[C@@H](Cc1cccc2ccccc12)NC(=O)CCc1ccc(F)cc1)C(=O)NCCN1CCCC1", "note": "[Example 1, 4-F-Phenylpropionyl-D1Nal-Ser-NMeTyr-DLys(Nic)-Leu-NH--(CH2)2 -(1-pyrrolidine)] ({Propanoyl(3-(4-F-phenyl))}-[d1Nal]S[NMeY][dK](Nicotinoyl)L-{NH(2-pyrrolidin-1-ylethyl)})", "LHRH Antagonist Activity (pA2)": 9.91}
{"smiles": "CC(C)C[C@H](NC(=O)[C@@H](CCCCNC(=O)c1cccnc1)NC(=O)[C@H](Cc1ccc(O)cc1)N(C)C(=O)CNC(=O)[C@@H](Cc1cccc2ccccc12)NC(=O)CCc1ccc(F)cc1)C(=O)NCCN1CCCC1", "note": "[Example 6, 4-F-Phenylpropionyl-D1Nal-Gly-NMeTyr-DLys(Nic)-Leu-NH--(CH2)2 -(1-pyrrolidine)] ({Propanoyl(3-(4-F-phenyl))}-[d1Nal]G[NMeY][dK](Nicotinoyl)L-{NH(2-pyrrolidin-1-ylethyl)})", "LHRH Antagonist Activity (pA2)": 8.90}
{"smiles": "CC(C)C[C@H](NC(=O)[C@@H](CCCCNC(=O)c1cccnc1)NC(=O)[C@@H]1Cc2ccccc2CN1C(=O)[C@H](CO)NC(=O)[C@@H](Cc1cccc2ccccc12)NC(=O)CCc1ccc(F)cc1)C(=O)NCCN1CCCC1", "note": "[Example 17, 4-F-Phenylpropionyl-D1Nal-Ser-Tic-DLys(Nic)-Leu-NH--(CH2)2 -( 1-pyrrolidine)] ({Propanoyl(3-(4-F-phenyl))}-[d1Nal]S[Tic][dK](Nicotinoyl)L-{NH(2-pyrrolidin-1-ylethyl)})", "LHRH Antagonist Activity (pA2)": 9.32}
{"smiles": "CC(C)C[C@H](NC(=O)[C@@H](CCCCNC(=O)c1cccnc1)NC(=O)[C@H](Cc1ccc(O)cc1)N(C)C(=O)[C@H](CO)NC(=O)[C@H](Cc1cccc2ccccc12)NC(=O)CCc1ccc(F)cc1)C(=O)NCCN1CCCC1", "note": "[Example 14, 4-F-Phenylpropionyl-1Nal-Ser-NMeTyr-DLys(Nic)-Leu-NH--(CH2)2 -(1-pyrrolidine)] ({Propanoyl(3-(4-F-phenyl))}-[1Nal]S[NMeY][dK](Nicotinoyl)L-{NH(2-pyrrolidin-1-ylethyl)})", "LHRH Antagonist Activity (pA2)": 8.68}
{"smiles": "CC(C)C[C@H](NC(=O)[C@@H](CCCCNC(=O)c1cccnc1)NC(=O)[C@H](Cc1ccc(O)cc1)N1CC[C@H](NC(=O)[C@@H](Cc2cccc3ccccc23)NC(=O)CCc2ccc(F)cc2)C1=O)C(=O)NCCN1CCCC1", "note": "[Example 19, 4-F-Phenylpropionyl-D1Nal-6,7[2-(S-3-amino-2-oxo-pyrrolidin-1-yl)-S-2-(para-hydroxyl)phenylacetyl]-DLys(Nic)-Leu-NH--(CH2)2-(1-pyrrolidine)]", "LHRH Antagonist Activity (pA2)": 7.89}
{"smiles": "CC(C)C[C@H](NC(=O)[C@@H](CCCCNC(=O)c1cccnc1)NC(=O)[C@H](Cc1ccc(O)cc1)N(C)C(=O)[C@H](CO)NC(=O)[C@@H](Cc1c[nH]c2ccccc12)NC(=O)CCc1ccc(F)cc1)C(=O)NCCN1CCCC1", "note": "[Example 10, 4-F-Phenylpropionyl-DTrp-Ser-NMeTyr-DLys(Nic)-Leu-NH--(CH2)2 -(1-pyrrolidine)] ({Propanoyl(3-(4-F-phenyl))}-[dW]S[NMeY][dK](Nicotinoyl)L-{NH(2-pyrrolidin-1-ylethyl)})", "LHRH Antagonist Activity (pA2)": 8.69}
